How the values were obtained:
PKCα = target: T1, PKCα (Homo sapiens, UniProt P17252); assay: PMA mediated PKCα sub-cellular translocation, measured by kinase activity after photocleavable antibody isolation; type: cell-based; conditions: cultured HeLa cells, 200 nM PMA for 5 min, detergent fractionated; based on kinase activity of isolated PKCα; n=4
T1 construct: isolate and photo-release endogenous PKCa from the undiluted detergent fractionated HeLa cell extracts; endogenous in cells; host or cells: HeLa (ATCC)
Method: FIG. 20. Phorbol ester (PMA) mediated protein kinase Cα (PKCα) sub-cellular translocation as measured by functional activity following isolation with photocleavable antibodies. Cultured HeLa cells were stimulated with 200 nM PMA for 5 min and detergent fractionated into the cytosol and membrane compartments prior to isolation and purification with the photocleavable antibodies.
Cultured HeLa cells (ATCC; Manassas, Va.) were stimulated for 5 min with 200 nM Phorbol-12-Myristate-13-Acetate (PMA; EMD Biosciences, Inc., San Diego, Calif.) and subsequently detergent fractionated into sub-cellular compartments according to reported procedures [Ramsby et al. (1994) Electrophoresis 15, 265-277; Ramsby & Makowski. (1999) Methods Mol Biol 112, 53-66; Chiang et al. (2000) J Biochem Biophys Methods 46, 53-68]. PMA is a potent activator of PKCα and is well known to cause translocation of the kinase from the cytosolic to the membrane sub-cellular compartments [Ross & Joyner. (1997) Endothelium 5, 321-332; Bazan & Rapoport. (1996) JPharmacol Toxicol Methods 36, 87-95; Yazlovitskaya & Melnykovych. (1995) Cancer Lett 88, 179-183]. […]

MDM2 = target: T2, MDM2 (Homo sapiens, UniProt Q00987); assay: p53-MDM interaction assay, complexes pre-formed before contact photo-transfer; type: binding; conditions: complex formed in solution, captured on beads, contact photo-transferred
T2 construct: polyhistidine (C); made in house; host or cells: rabbit reticulocyte lysate, cell-free (MDM2)
Method: All steps were performed at +4° C. or on an ice water bath and all reagents and samples were also kept under these conditions during the procedure. […] To facilitate addition of small bead volumes to the samples, the beads were initially prepared to a 10% (v/v) bead suspension with 5 mM DTT in PBS. The samples, now 80 μL each, were then mixed with 10 μL of the 10% (v/v) bead suspension corresponding to addition of 1 μL packed bead volume. After capture on the NeutrAvidin beads for 1 hr, beads were washed by mixing 3× briefly (briefly=5 sec vortex mix) in 400 bead volumes per wash of PBS pH 7.5 and 5 mM DTT. The washing procedure was performed in batch mode using 0.45 micron pore size, PVDF membrane, micro-centrifuge Filtration Devices to facilitate manipulation of the small volumes of affinity matrix (˜100 micron beads) and exchange the buffers (Ultrafree-MC Durapore Micro-centrifuge Filtration Devices, 400 μL capacity; Millipore, Billerica, Mass.). Prior to contact photo-transfer of the captured and isolated proteins, the washed pellet of 1 μL of NeutrAvidin agarose beads was suspended in a final volume of 50 μL of 50% glycerol and 5 mM DTT in PBS thereby resulting in a 2% (v/v) bead suspension.

T2 sequence (Q00987 whole entry): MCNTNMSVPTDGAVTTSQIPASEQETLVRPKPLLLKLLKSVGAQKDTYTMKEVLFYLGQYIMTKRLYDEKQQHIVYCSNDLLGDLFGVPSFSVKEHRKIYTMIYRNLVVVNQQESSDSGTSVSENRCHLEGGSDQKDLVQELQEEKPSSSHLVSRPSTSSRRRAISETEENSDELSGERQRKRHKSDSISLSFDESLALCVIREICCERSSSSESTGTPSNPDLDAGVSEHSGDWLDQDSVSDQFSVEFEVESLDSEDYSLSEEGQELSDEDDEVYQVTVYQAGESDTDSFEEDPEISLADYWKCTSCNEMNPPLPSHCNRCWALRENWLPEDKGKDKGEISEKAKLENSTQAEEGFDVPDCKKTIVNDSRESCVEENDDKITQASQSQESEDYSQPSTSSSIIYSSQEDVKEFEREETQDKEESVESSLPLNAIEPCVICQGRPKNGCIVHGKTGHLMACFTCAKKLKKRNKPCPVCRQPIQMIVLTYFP

With CCCCCCCCCCCCCC(=O)O[C@@H]1[C@@H](C)[C@@]2(O)[C@@H](C=C(CO)C[C@]3(O)C(=O)C(C)=C[C@@H]23)[C@@H]2C(C)(C)[C@]12OC(C)=O [PMA, Phorbol-12-Myristate-13-Acetate] as the compound, how does the “PKCα distribution, cytosol” value (PKCα) read?
The value was 16±4%.

What about the “PKCα distribution, membrane” value (PKCα) of the same compound?
The value was 84±3%.

For “p53 probe: cell-free expressed p53 labeled only with BODIPY-FL using BODIPY-FL-tRNA COMPLETE”, which “binding of cell-free expressed BODIPY-FL p53 probe to MDM bait” value (MDM2) is on record?
The value was “selective binding”.

— US20090264298A1, “Methods for enriching subpopulations” (AMBERGEN, Inc., priority 2007, published 2009)
